The values below come from PubChem BioAssay (NCI).

Among the test systems are A549 NSCLC; CCRF-CEM leukemia; COLO 205 colon; HOP-62 NSCLC; IGROV1 ovarian; MCF7 breast; NCI-H226 lung; NCI-H23 lung; PC-3 prostate; UACC-257 melanoma.
Holding throughout (test): inhibition of tumour cell growth, NCI panel, 48 h

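How tested: cells in 96-well plates exposed to compound for 48 hours at five concentrations. GI50 is the concentration that inhibits growth by half. At the TGI there is no net growth.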

With `Cn1ccnc1C(=O)/C=C/c1ccc(CC(=O)Nc2ccc(F)cc2)cc1`, the GI50 in the assay on A549 NSCLC was 6.43 µM; in the assay with CCRF-CEM leukemia, 2 µM; in the assay with COLO 205 colon, 4.39 µM; in the assay on HOP-62 NSCLC, 4.68 µM; with IGROV1 ovarian, 2.93 µM; with MCF7 breast, 1.04 µM. For the same molecule, the GI50 in the assay on NCI-H226 lung was 8.57 µM; in the assay with NCI-H23 lung, 3.04 µM; in the assay on PC-3 prostate, 1.99 µM; in the assay on UACC-257 melanoma, 6.99 µM. The TGI in the assay with A549 NSCLC was over 25 µM; with CCRF-CEM leukemia, over 25 µM; in the assay with COLO 205 colon it was 10.3 µM; with HOP-62 NSCLC, 19 µM; in the assay with IGROV1 ovarian, 16.6 µM; in the assay on MCF7 breast it was 8.59 µM. Besides, the TGI with NCI-H226 lung was over 25 µM; in the assay with NCI-H23 lung, 8.56 µM; in the assay with PC-3 prostate it was 7.96 µM; with UACC-257 melanoma it was 21.6 µM.
Take `N#Cc1c(N)nc(NCc2ccccc2)c(C#N)c1-c1ccccc1Cl`: the GI50 in the assay with A549 NSCLC is 21.3 µM; with CCRF-CEM leukemia, 15.2 µM; with COLO 205 colon, 74 µM; in the assay on HOP-62 NSCLC, 4.47 µM; in the assay with IGROV1 ovarian, 5.08 µM; in the assay on MCF7 breast, 20 µM. For the same molecule, the GI50 is 2.39 µM in the assay with NCI-H226 lung, 17.5 µM with NCI-H23 lung, 12 µM in the assay with PC-3 prostate and over 100 µM in the assay on UACC-257 melanoma. Moreover, the TGI was over 100 µM in the assay on A549 NSCLC; 45.5 µM in the assay on CCRF-CEM leukemia; over 100 µM in the assay with COLO 205 colon; 18 µM with HOP-62 NSCLC; 41.1 µM with IGROV1 ovarian; over 100 µM in the assay on MCF7 breast. For the same molecule, the TGI is 14.5 µM in the assay with NCI-H226 lung, over 100 µM in the assay on NCI-H23 lung, over 100 µM in the assay with PC-3 prostate and over 100 µM in the assay on UACC-257 melanoma.
Consider `OCC1OC2OC3C(CO)OC(OC4C(CO)OC(OC5C(CO)OC(OC6C(CO)OC(OC7C(CO)OC(OC1C(O)C2O)C(O)C7O)C(O)C6O)C(O)C5O)C(O)C4O)C(O)C3O` (stereo not given) (tested in a mixture with another compound), for which the TGI in the assay on A549 NSCLC, in the assay with CCRF-CEM leukemia, with COLO 205 colon, in the assay on HOP-62 NSCLC, in the assay on IGROV1 ovarian and in the assay with MCF7 breast was over 100 µM each time. Moreover, the TGI with NCI-H226 lung, with NCI-H23 lung, in the assay with PC-3 prostate and in the assay with UACC-257 melanoma was over 100 µM throughout.
Take `CC1(C)N=C(N)N=C(N)N1c1cccc(CCCCOc2ccccc2)c1`: the GI50 is 0.0562 µM in the assay on A549 NSCLC; 0.0414 µM in the assay on CCRF-CEM leukemia; 0.0222 µM with COLO 205 colon; 0.663 µM in the assay with HOP-62 NSCLC; under 0.0118 µM with IGROV1 ovarian; 0.05 µM in the assay with MCF7 breast. For the same molecule, the GI50 was 0.801 µM in the assay with NCI-H226 lung, 0.0664 µM with NCI-H23 lung, under 0.01 µM in the assay with PC-3 prostate and 0.381 µM with UACC-257 melanoma. Moreover, the TGI with A549 NSCLC is 98.8 µM; with CCRF-CEM leukemia, 32.7 µM; in the assay on COLO 205 colon, 14.4 µM; in the assay on HOP-62 NSCLC, over 87.1 µM; in the assay on IGROV1 ovarian it was 15.7 µM; in the assay with MCF7 breast it was 17.5 µM. Besides, the TGI was over 100 µM with NCI-H226 lung, 81.4 µM with NCI-H23 lung, 9.96 µM in the assay on PC-3 prostate and 23.5 µM in the assay with UACC-257 melanoma.
In the case of `O=C(Cc1ccccc1)NC(c1ccc(Cl)cc1)c1c(O)ccc2ccccc12` (stereo not given), the GI50 in the assay with A549 NSCLC is 3.68 µM; in the assay on CCRF-CEM leukemia, 3.91 µM; with COLO 205 colon, 1.98 µM; in the assay with HOP-62 NSCLC, 2.84 µM; in the assay on IGROV1 ovarian it was 4.67 µM; in the assay on MCF7 breast it was 2.66 µM. Also, the GI50 in the assay on NCI-H226 lung is 3.15 µM; in the assay on NCI-H23 lung it was 2.92 µM; in the assay with PC-3 prostate, 3.19 µM; in the assay with UACC-257 melanoma, 2.77 µM. In addition, the TGI is 13.3 µM in the assay with A549 NSCLC; 26.7 µM with CCRF-CEM leukemia; 3.48 µM with COLO 205 colon; 8.57 µM in the assay with HOP-62 NSCLC; 18.3 µM in the assay on IGROV1 ovarian; 9.37 µM with MCF7 breast. For the same molecule, the TGI in the assay with NCI-H226 lung was determined as 12 µM; in the assay on NCI-H23 lung, 9.2 µM; in the assay with PC-3 prostate, 10.6 µM; in the assay with UACC-257 melanoma, 10.4 µM.
Take `O=S(=O)(CCNCc1ccc(-c2ccc3ncnc(Nc4ccc(OCc5cccc(F)c5)c(Cl)c4)c3c2)o1)c1ccccc1`: the GI50 in the assay with A549 NSCLC was over 25 µM; in the assay with CCRF-CEM leukemia, over 23.1 µM; with COLO 205 colon it was over 25 µM; in the assay on HOP-62 NSCLC, over 25 µM; in the assay with IGROV1 ovarian, over 23.6 µM; in the assay with MCF7 breast it was over 25 µM. Besides, the GI50 in the assay with NCI-H226 lung, in the assay on NCI-H23 lung, in the assay on PC-3 prostate and in the assay with UACC-257 melanoma was over 25 µM in each case. Moreover, the TGI in the assay with A549 NSCLC, in the assay with CCRF-CEM leukemia, in the assay with COLO 205 colon, in the assay on HOP-62 NSCLC, in the assay with IGROV1 ovarian and in the assay on MCF7 breast was over 25 µM each time. Besides, the TGI in the assay with NCI-H226 lung, with NCI-H23 lung, in the assay on PC-3 prostate and in the assay with UACC-257 melanoma was over 25 µM throughout.
In the case of `Brc1ccccc1C=NC12CC3CC(CC(C3)C1)C2`, the TGI in the assay with A549 NSCLC, with CCRF-CEM leukemia, in the assay with COLO 205 colon, with HOP-62 NSCLC, in the assay with IGROV1 ovarian and in the assay on MCF7 breast was over 100 µM throughout. Moreover, the TGI in the assay on NCI-H226 lung, with NCI-H23 lung, in the assay on PC-3 prostate and with UACC-257 melanoma was over 100 µM in each case.
For the molecule H-HIIKKIRTWYRKAWHVLGKV-NH2, the GI50 in the assay with A549 NSCLC was 5.51 µM; in the assay with CCRF-CEM leukemia it was 3.71 µM; with COLO 205 colon it was 2.11 µM; in the assay on HOP-62 NSCLC, 4.59 µM; in the assay with IGROV1 ovarian, 4.32 µM; in the assay with MCF7 breast, 2.05 µM. For the same molecule, the GI50 in the assay with NCI-H226 lung was 4.15 µM; in the assay on NCI-H23 lung, 4.94 µM; in the assay on PC-3 prostate, 2.79 µM; with UACC-257 melanoma it was 8.48 µM. For the same molecule, the TGI in the assay on A549 NSCLC was over 100 µM; in the assay with CCRF-CEM leukemia, over 100 µM; in the assay on COLO 205 colon, 4.92 µM; with HOP-62 NSCLC, over 100 µM; in the assay on IGROV1 ovarian, 28.3 µM; in the assay with MCF7 breast, 4.58 µM. The TGI in the assay with NCI-H226 lung is 39.2 µM; with NCI-H23 lung, 31.1 µM; in the assay with PC-3 prostate, 9.74 µM; in the assay with UACC-257 melanoma it was 59.6 µM.
